Entries after “also recorded” stand apart in the source; their conditions may differ.
Experiments:
[1] = Tanshinone bile excretion and intrahepatic transformation; format: in vivo, rats
Experimental: The experimental animal is male rats each weighs 350-400 g. Intraperitoneal anesthesia with 10% of 1 g/kg malarin is employed. Insert it into the common bile duct with infantile scalp needle. After it is fixed, collect bile, for 1 hour quantity, to be used as blank contrast. Small amount of dimethyl formamide added to the medicine. And then, 1% carboxymethyl cellulose is diluted to 10 mg/ml. Administer to the duodenum and followed by scheduled fixed quantity of bile collection. The bile stays overnight in the fridge. Abstract twice with chloroform and combine with chloroform liquid. Conduct water bath and dry it by evaporation. Keep it in the desiccators. Before the test, fixed quantity dilution is conducted by using 50 ml chloroform and followed by high pressure liquid's separation and fixation of quantity. The change of Tanshinone in the liver hemogenate: After a larger male […], weighs 160 g, is anesthetized, its liver is taken and weighed. Use 0.15M potassium chloride and 0.24M amide to manufacture hemogenate. Use double-deck gauze for filtrating. Again, with the above-mentioned solution, dilute the filtrate to every 10 ml which equals to the 6 g weight of the liver tissue. Add 4 ml of pH 7.4 phosphoric buffer solution and 2 ml liver hemogenate to the 100 ml conical flask. 1 mg specimen of Tanshinone dissolves in 95% of 0.2 ml ethanol. 0.2 ml of 95% ethanol liquid, which contains no tashinone, is added to the control group. Keep it warm at 37° C. for 2 hours. When the reaction ceases, use 12 ml chloroform to extract twice separately. Merge with the extract, and conduct water bath and dry it by evaporation. Before the test, the specimen is dissolved with 100 ml chloroform. Use the thin layer for separating and quantity fixing [silica-CMC thin layer; developer is benzene-acetone (95:5)]. […] The peak of excretion takes place in about 3 hours after the administration. […] Quantity of Tanshinone IIA in the bile excretion from animal of such group is 5 to 10 times higher than the Tanshinone IIA group. […]

[2] = puerarin aglycone, left ventricular function index; format: in vivo; conditions: dog
From the text: Study proves puerarin is able to mitigate the angina pectoris, contracted, remarkably and improve the ischemic electrocardiogram. It reduces the myocardial oxygen consumption. Puerarin can slow down the rate of the heart pulsation and enhance the myocardial systolic power. […] Puerarin is able to outstandingly reduce the tension-time index (TTI) and the ascending rate of the left ventricular pressure. The effect of puerarin on ischemic myocardium is reducing the resistance of the coronary artery's lateral branch. Puerarin is able to mitigate clearly the PG angina pectoris and improve the ischemic electrocardiogram. […] It enables the reduction of coronary artery's resistance and the increase of coronary artery's flow volume. Thus, it is advantageous to the improvement of balance of supply and need. And also, it has the obvious effect on resisting the arrhythmia.

[3] = intravenous matrine in rats: arrhythmia and ECG; format: in vivo
From the text: (§1) It is antagonistic to the acceleration of heart rate induced by isopropylnoradrenaline.

[4] = system: isolated rats's right atrium; experiment: isolated rats's right atrium
From the text: as §1

[5] = intramuscular matrine crystal in dog
Experimental: Intramuscular injection of matrine crystal 200 mg/kg given to the dog. […] Dog is administrated with daily intramuscular injection 0.5 g. […] 1-3 treatment courses are carried out altogether.

[6] = system: isolated guinea pig's right and left atrium; experiment: isolated guinea pig's atria
From the text: The effect of alkaloids on heart function is studied. […] Furthermore, it presents dosage dependent relation. The function of its negative frequency, positive inotropic action and negative maximum driving force (MDF) appears to be linear correlation. Matrine is able to inhibit the aconitine to induce the rats's left atrial automatic rhythmicity effect, or, prolong the aconitine to induce the latent period's auto-rhythmicity or slow down its initial frequency. Also, it is able to heighten the ouabin to induce the guinea pig's right atrial arrhythmia and the adrenal gland injection to induce the auto-consistency of guinea pig's left atrium. Moreover, it has the enhancement effect on the positive inotropic action of ouabin.
In fact, all of them are dosage dependence relation. […] It clearly prolongs inducement of the latent period of auto-rhythmicity and slows down the inducement of auto-rhythmicity's initial frequency. It is also able to raise ouabin to induce the isolated guinea pig's right atrial arrhythmia and the adrenal gland inducing the isolated guinea pig's left atrial auto-rhythmicity's consistency.

solubility = experiment: solubility
Experimental: Matrine is also called matricaria. Its molecular formula is C15H24N2O and its molecular weight is 248.36. It has four isomers: α, β, γ, and δ isomers. α-matrine is the one commonly seen. It is a needle or rhombohedral crystal, having a melting point 76° C. and [α]D+39.1° (H2O).
Oxymatrine has a molecular formula C15H24N2O2 and a molecular weight 264.36. It is a colorless columnar crystal (Me2CO), melting point 162° C. (hydrate), 207° C. (anhydrate), [α]D+47.7° (C2H5OH). […] It can change to matrine through reaction with SO2.

[7] = pharmacokinetics of oxymatrine and matrine in mice; conditions: mouse, in vivo
[8] = subcutaneous injection; cited from earlier work
[9] = intravenous matrine injection in cat; format: in vivo; conditions: 1 mg/kg i.v.
From the text: The curative effect of matrine upon the premature heartbeat, caused by various reasons, is relatively better. It is partially effective on the supraventricular arrhythmia. In clinical study, matrine's tablet is employed to treat 167 cases of arrhythmia.

## C[C@H]1COC2=C1C(=O)C(=O)c1c2ccc2c1CCCC2(C)C [latent Tanshinone]
[1]; rat, in vivo
  transformation in the liver: can transform into Tanshinone IIA

## O=c1c(-c2ccc(O)cc2)coc2cc(O)ccc12 [puerarin aglycone]
[2]
  lowering of left ventricular function index: 14.3%

## Matrine
[3]; 18.75 mg/kg
  heart rate: heart rate slows down clearly
[3]; i.v.
  arrhythmia caused by aconitine, barium chloride and ligation of coronary artery: significantly able to resist the arrhythmia
[4]
  calcium-antagonism effect: no calcium-antagonism effect
  right atrial spontaneous frequency: clearly slows down
[5]; 200 mg/kg intramuscular, 6 hours of observation
  abnormal phenomenon: no abnormal phenomenon except slightly being quiet
[5]; 0.5 g daily intramuscular, 14 days
  mental state, activity condition and hemogram: no apparent abnormal phenomenon
[5]; 0.5 g daily, 13-day courses, 1-3 courses
  pathologic examination of the myocardium: no obvious change
[6]
  left atrial maximum driving force (MDF): reduces the left atrial maximum driving force
  right atrial systolic power: increases the right atrial systolic power
[6]; 3 μmol/L
  aconitine-induced left atria automatic rhythmicity: significantly inhibits
[6]; dosage dependent
  automatic frequency of right atrium: slow down the automatic frequency of guinea pig's right atrium; also recorded: obvious negative frequency effect
solubility
  solubility: soluble in water, benzene, chloroform, ether and carbon sulfide and nearly insoluble in petroleum ether
[7]
  gastrointestinal absorption: easier to be absorbed by the gastrointestinal tract
[8]
  LD50: 297 ± 18 mg/kg
[9]
  blood flow capacity of the coronary artery: increases
  heart rate: slowdown of cat's heart rate emerges

## Tanshinone
[1]; duodenal administration
  time of peak of bile excretion: about 3 hours
  time until Tanshinone is found in the bile: in about an hour

From US7384657B2, “Composition of natural herb extract for treating cardiovascular disease and its method of preparation thereof” (priority 2004, dated 2008)
